≈ marks a conversion by molar mass, not a printed value.
Tests used:
[1] = Aqueous solubility of the compound at pH 6.4; format: physicochemical
[2] = Permeability across apical to basolateral side in human Caco2 cells at 100 uM; format: ADME, cell-based; conditions: Caco-2, read-out: permeability
[3] = Membrane permeability by PAMPA assay; format: ADME; conditions: read-out: permeability
[4] = biological target: T1, Substance-K receptor (Homo sapiens, UniProt P21452); assay: Displacement of [125I]neurokinin A from human NK2 receptor after 30 mins
T1 sequence (P21452 whole entry): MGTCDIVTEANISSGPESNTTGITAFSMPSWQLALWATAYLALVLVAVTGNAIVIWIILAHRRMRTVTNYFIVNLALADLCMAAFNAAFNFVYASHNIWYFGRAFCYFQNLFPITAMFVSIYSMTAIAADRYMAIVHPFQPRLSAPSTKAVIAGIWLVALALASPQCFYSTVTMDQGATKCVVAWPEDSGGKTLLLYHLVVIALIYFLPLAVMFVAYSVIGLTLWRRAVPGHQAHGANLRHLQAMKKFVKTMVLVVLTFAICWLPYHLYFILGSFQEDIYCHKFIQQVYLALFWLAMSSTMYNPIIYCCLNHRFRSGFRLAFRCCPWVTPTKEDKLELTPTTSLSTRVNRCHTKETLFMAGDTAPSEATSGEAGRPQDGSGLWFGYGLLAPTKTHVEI

solubility [1] [µg/mL]	Papp A→B at 100 µM [2] [×10⁻⁶ cm/s]	Papp [3] [×10⁻⁶ cm/s]	Ki [4] [nM]	Compound
> 2410	–	–	–	CCCCc1ccc(C(=O)NC2(C(=O)N[C@@H](Cc3ccccc3)C(=O)NCC3CCN(CC4CCOCC4)CC3)CCCC2)cc1
2800 (≈ 4.58 mM)	25.2	15.5	2.04	O=C(NC1(C(=O)N[C@H](CCCN2CCN(CC3CCOCC3)CC2)Cc2ccccc2)CCCC1)c1cc2ccccc2cn1
1450 (≈ 2.27 mM)	< 1	–	0.234	O=C(NC1(C(=O)N[C@@H](Cc2ccccc2)C(=O)NCC2CCN(CC3CCOCC3)CC2)CCCC1)c1ccc(-n2cccc2)cc1

Continued, compound first:

Compound	solubility [1] [µg/mL]	Papp A→B at 100 µM [2] [×10⁻⁶ cm/s]	Papp [3] [×10⁻⁶ cm/s]	Ki [4] [nM]
O=C(NC1(C(=O)N[C@@H](Cc2ccccc2)C(=O)NCC2CCN(CC3CCOCC3)CC2)CCCC1)c1ccc(-n2cccc2)cc1F	> 2860	13.8	0.66	3.24
O=C(NC1(C(=O)N[C@H](CCCN2CCN(CC3CCOCC3)CC2)Cc2ccccc2)CCCC1)c1ccc2ccccc2c1	1570 (≈ 2.57 mM)	14.7	5.96	0.324
COc1c(C(=O)NC2(C(=O)N[C@H](CCCN3CCN(CC4CCOCC4)CC3)Cc3ccccc3)CCCC2)ccc2ccccc12	1910 (≈ 2.98 mM)	11.7	6.77	44.7
CCCCc1ccc(C(=O)NC2(C(=O)N[C@@H](Cc3ccccc3)C(=O)NCC3CCN(CC4CCOCC4)CC3)CCCC2)nc1	> 6600	–	–	–
O=C(NC1(C(=O)N[C@@H](Cc2ccccc2)C(=O)NCC2CCN(CC3CCOCC3)CC2)CCCC1)c1ccc(-n2cccc2)cc1Cl	> 2820	4.21	0.16	3.98
COc1cc2ccccc2cc1C(=O)NC1(C(=O)N[C@H](CCCN2CCN(CC3CCOCC3)CC2)Cc2ccccc2)CCCC1	3070 (≈ 4.79 mM)	13.6	11.9	8.32

Reference: ChEMBL document CHEMBL1681734, “hNK2 receptor antagonists. The use of intramolecular hydrogen bonding to increase solubility and membrane permeability” (Bioorg Med Chem Lett, 2011)
